This note sets out measurements from ChEMBL document CHEMBL4330138, “Discovery of new indole-based acylsulfonamide Nav1.7 inhibitors” (Bioorg Med Chem Lett, 2019).

pIC50: −log10 of the molar value. Some results are limits rather than exact numbers.

For data set [1], the target named is T1, Sodium channel protein type 9 subunit alpha (Homo sapiens, UniProt Q15858). As to the kind of experiment: Inhibition of human Nav1.7 at -60 mV holding potential by cell-based manual patch clamp electrophysiology method.
Target sequence in this assay (Q15858 whole entry): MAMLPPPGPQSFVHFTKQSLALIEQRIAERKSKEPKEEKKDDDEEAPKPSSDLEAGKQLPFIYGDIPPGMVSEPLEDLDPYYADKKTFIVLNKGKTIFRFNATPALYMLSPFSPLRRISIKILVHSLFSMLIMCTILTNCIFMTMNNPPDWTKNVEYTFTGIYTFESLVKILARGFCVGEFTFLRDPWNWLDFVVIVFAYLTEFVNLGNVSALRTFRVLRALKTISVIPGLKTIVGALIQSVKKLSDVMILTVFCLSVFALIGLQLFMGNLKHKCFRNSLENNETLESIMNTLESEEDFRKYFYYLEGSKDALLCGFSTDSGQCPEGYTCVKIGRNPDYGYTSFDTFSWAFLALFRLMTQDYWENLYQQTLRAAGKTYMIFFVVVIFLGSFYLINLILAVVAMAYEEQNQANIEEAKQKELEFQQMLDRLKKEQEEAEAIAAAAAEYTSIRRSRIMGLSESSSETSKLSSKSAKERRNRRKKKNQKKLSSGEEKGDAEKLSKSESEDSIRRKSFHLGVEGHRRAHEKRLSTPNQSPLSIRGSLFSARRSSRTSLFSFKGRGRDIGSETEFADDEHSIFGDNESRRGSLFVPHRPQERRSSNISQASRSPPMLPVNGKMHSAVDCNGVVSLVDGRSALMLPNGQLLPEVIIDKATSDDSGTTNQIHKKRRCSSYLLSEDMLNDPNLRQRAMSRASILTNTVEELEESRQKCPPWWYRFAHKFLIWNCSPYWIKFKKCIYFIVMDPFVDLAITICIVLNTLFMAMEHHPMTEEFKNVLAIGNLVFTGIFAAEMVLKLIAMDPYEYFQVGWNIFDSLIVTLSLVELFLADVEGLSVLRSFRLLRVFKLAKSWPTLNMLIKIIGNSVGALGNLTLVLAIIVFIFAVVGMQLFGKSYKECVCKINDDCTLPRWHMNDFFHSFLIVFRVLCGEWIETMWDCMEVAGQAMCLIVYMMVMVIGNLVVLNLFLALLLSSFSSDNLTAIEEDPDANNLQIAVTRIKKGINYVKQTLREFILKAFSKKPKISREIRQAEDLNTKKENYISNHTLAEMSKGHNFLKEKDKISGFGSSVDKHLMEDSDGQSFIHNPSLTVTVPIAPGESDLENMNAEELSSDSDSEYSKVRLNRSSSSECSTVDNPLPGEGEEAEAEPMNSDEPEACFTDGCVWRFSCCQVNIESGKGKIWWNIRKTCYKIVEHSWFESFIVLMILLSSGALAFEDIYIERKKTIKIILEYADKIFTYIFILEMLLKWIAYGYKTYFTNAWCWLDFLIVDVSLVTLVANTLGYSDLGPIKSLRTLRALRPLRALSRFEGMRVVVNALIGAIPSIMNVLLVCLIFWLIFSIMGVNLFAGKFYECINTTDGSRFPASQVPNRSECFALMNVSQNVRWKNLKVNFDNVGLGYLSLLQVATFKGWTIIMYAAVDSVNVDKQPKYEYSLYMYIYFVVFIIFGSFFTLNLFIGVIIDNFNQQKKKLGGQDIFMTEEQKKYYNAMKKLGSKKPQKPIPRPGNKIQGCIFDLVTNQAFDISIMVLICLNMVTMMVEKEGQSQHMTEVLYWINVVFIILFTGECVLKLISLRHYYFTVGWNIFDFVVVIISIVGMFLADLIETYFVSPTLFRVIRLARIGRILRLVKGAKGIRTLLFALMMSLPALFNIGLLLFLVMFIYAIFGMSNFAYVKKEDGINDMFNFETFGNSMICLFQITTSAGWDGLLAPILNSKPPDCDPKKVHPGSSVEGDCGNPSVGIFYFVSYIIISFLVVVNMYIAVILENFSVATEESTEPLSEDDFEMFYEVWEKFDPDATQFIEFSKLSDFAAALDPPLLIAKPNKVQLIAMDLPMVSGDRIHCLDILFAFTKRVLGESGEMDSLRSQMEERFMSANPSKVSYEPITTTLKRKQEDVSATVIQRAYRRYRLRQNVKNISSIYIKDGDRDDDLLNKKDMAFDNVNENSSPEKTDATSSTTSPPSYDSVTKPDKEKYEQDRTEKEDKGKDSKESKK
The target of data set [2] is T1, Sodium channel protein type 9 subunit alpha. As to the kind of experiment: Inhibition of human Nav1.7 at -60 mV holding potential by cell-based IonWorks barracuda automated electrophysiology method.
Target sequence in this assay (Q15858 whole entry): as above
The target of data set [3] is Sodium channel protein type 5 subunit alpha (Homo sapiens, UniProt Q14524). As to the kind of experiment: Inhibition of human Nav1.5 at -50 mV holding potential by cell-based IonWorks barracuda automated electrophysiology method. Format: ADME.
Sequence of Sodium channel protein type 5 subunit alpha (Q14524 whole entry): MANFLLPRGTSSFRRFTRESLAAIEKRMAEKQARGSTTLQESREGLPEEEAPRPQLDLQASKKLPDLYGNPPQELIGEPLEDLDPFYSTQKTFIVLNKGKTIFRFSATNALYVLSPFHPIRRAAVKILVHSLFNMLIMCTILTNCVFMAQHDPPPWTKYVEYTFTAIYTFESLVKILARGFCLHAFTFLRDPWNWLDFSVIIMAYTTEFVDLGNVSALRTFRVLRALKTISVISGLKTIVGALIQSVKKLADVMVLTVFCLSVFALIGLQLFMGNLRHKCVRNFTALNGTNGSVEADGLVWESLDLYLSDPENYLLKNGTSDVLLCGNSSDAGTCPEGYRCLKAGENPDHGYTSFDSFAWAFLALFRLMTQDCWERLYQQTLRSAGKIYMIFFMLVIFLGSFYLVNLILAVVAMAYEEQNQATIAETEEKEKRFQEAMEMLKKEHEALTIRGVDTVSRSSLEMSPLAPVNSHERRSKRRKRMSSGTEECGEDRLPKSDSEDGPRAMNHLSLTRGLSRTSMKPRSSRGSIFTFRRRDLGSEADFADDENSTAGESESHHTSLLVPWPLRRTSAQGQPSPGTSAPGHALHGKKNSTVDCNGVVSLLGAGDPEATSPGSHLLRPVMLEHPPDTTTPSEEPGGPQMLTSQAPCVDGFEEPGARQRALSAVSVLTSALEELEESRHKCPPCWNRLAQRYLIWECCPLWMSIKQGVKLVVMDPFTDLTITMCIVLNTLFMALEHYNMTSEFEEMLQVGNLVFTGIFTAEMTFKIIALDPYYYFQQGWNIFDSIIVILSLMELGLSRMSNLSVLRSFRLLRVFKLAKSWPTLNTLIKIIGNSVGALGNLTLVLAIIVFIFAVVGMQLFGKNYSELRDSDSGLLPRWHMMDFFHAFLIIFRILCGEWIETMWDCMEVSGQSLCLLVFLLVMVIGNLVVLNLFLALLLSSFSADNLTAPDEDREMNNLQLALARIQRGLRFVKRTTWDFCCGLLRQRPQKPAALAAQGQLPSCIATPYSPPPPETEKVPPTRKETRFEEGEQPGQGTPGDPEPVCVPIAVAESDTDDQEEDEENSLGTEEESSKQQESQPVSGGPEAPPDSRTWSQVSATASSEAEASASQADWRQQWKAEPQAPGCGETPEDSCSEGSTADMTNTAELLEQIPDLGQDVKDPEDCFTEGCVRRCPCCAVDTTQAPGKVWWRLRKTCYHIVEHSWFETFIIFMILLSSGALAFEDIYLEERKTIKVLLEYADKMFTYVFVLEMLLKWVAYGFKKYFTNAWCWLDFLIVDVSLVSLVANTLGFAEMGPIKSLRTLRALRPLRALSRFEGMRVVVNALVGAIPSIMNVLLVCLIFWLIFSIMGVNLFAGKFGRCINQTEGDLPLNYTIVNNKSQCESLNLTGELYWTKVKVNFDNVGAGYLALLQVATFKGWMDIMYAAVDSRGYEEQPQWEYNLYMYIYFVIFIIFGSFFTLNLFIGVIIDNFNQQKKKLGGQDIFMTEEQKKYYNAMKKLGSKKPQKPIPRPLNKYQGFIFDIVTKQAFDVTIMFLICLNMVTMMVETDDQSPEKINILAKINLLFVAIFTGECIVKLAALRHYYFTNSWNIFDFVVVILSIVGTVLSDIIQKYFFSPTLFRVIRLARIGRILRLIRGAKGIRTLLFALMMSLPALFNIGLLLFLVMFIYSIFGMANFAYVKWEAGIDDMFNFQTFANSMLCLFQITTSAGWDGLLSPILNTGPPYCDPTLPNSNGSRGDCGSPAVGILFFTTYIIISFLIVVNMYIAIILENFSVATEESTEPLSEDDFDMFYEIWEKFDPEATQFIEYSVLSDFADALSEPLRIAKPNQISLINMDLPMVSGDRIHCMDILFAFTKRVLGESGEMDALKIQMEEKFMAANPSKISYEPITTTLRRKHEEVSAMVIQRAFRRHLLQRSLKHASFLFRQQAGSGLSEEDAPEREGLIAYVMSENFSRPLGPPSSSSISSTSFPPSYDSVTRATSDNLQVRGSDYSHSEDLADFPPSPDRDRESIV
Data set [4] can be described thus: Permeability across apical to basolateral side in human Caco2 cells. It counts as ADME, cell-based. The following applies: Caco-2, read-out: permeability.
Data set [5] is described as follows: Permeability across basolateral to apical side in human Caco2 cells. Format: ADME, cell-based. The note with it: Caco-2, read-out: permeability.
Data set [6] deals with CYP450 (Cytochrome P450 family, isoform not stated) (Homo sapiens, UniProt P04798+P05177+P05181+P08684+P10632+P10635+P11509+P11712+P13584+P20813+P20815+P20853+P24462+P24903+P33260+P33261+P51589+P78329+P98187+Q02928+Q08477+Q16678+Q16696+Q5TCH4+Q6VVX0+Q7Z449+Q8TAV3+Q96SQ9+Q9HB55). As to the kind of experiment: Inhibition of human CYP450. Format: ADME, protein assay.
Data set [7] in a line: Efflux ratio of permeability from basolateral to apical side over apical to basolateral side in human Caco2 cells. Format: ADME, cell-based. The note with it: Caco-2.
The target in data set [8] is T1, Sodium channel protein type 9 subunit alpha. The experiment in a line: Ratio of IC50 for human Nav1.7 at -60 mV holding potential by cell-based IonWorks barracuda automated electrophysiology method to IC50 for human Nav1.7 at -60 mV holding potential by cell-based manual patch clamp electrophysiology method.
Target sequence in this assay (Q15858 whole entry, looked up): as the sequence (Q15858 whole entry) above
Data set [9] shares this target. The experiment in a line: Ratio of IC50 for human Nav1.7 at -60 mV holding potential by cell-based manual patch clamp electrophysiology method to IC50 for human Nav1.7 at -60 mV holding potential by cell-based IonWorks barracuda automated electrophysiology method.
Target sequence in this assay (Q15858 whole entry, looked up): as the sequence (Q15858 whole entry) above
For a further data set, the species on record is Homo sapiens. As to the kind of experiment: Selectivity ratio of IC50 for human Nav1.5 to IC50 for human Nav1.7.

With `Cn1c(-c2cnc(N3CCOCC3)nc2)c(C2CCCCC2)c2ccc(C(=O)NS(=O)(=O)C3CC3)cc21`, the negative logarithm of the IC50 (pIC50) in data set [1] was 7.52.
Consider `Cc1cn(C2C=CCCC2)c2ccc(C(=O)NS(=O)(=O)C3CC3)cc12` (stereo not drawn), for which the figures for the negative-log IC50 (pIC50) in data set [2] and in data set [3] were 7.14 and 6.34, respectively.
On to `Cc1cn(C2CCCCC2)c2ccc(C(=O)NS(=O)(=O)C3CC3)cc12`, for which the Papp A→B in data set [4] was 10.6 ×10⁻⁶ cm/s. Moreover, in data set [5], the Papp B→A was 21.9 ×10⁻⁶ cm/s. The negative-log IC50 (pIC50) in [2] is 7.43; in data set [3], 4.89; in data set [6], less than 5.00. Besides, the efflux ratio in data set [7] stood at 2.1.
For `Cc1cn(C)c2cc(C(=O)NS(=O)(=O)C3CC3)ccc12`, the negative-log IC50 (pIC50) in data set [2] and in data set [3] was less than 4.52 throughout.
Take `COc1ncc(-c2c(C3CCCCC3)c3ccc(C(=O)NS(=O)(=O)C4CC4)cc3n2C)cn1`: the negative-log IC50 (pIC50) is 7.34 in data set [1] and 6.71 in [2]. Moreover, the Ratio IC50 in [8] came out at 4.
Consider `O=C(NS(=O)(=O)C1CC1)c1ccc2c(C3CCCCC3)c3n(c2c1)CCCCC3O` (stereo not drawn), for which, in data set [2], the pIC50 was less than 4.52.
As to `Cn1cc(C(C)(C)C)c2ccc(C(=O)NS(=O)(=O)C3CC3)cc21`, the pIC50 in data set [2] is 5.96; in data set [3] it was less than 4.52.
The like results for `CN1CCC(c2cn(C)c3cc(C(=O)NS(=O)(=O)C4CC4)ccc23)CC1` were, in that order, less than 4.52 and less than 4.52.
In the case of `Cn1cc(C2CCCC(C)(C)C2)c2ccc(C(=O)NS(=O)(=O)C3CC3)cc21` (stereo not drawn), the negative-log IC50 (pIC50) in [2] was 7.32; in data set [3], 5.39.
On to `Cn1cc(C2CCCNC2)c2ccc(C(=O)NS(=O)(=O)C3CC3)cc21` (stereo not drawn), for which the pIC50 in data set [2] and in [3] was less than 4.52 throughout.
Turning to `Cn1c(-c2ccc(N3CCCC3)nc2)c(C2CCCCC2)c2ccc(C(=O)NS(=O)(=O)C3CC3)cc21`, the pIC50 in data set [1] was 7.42.
As to `Cn1cc(C2CCC2)c2ccc(C(=O)NS(=O)(=O)C3CC3)cc21`, the negative logarithm of the IC50 (pIC50) in data set [2] was 6.44; in data set [3], 5.17.
For the compound `Cn1c(-c2ccc(C#N)nc2)c(C2CCCCC2)c2ccc(C(=O)NS(=O)(=O)C3CC3)cc21`, in [9], the Ratio IC50 turned out to be 3. For the same compound, the pIC50 in [1] was 6.44; in data set [2], 6.91.
`Cn1c(-c2ccoc2)c(C2CCCCC2)c2ccc(C(=O)NS(=O)(=O)C3CC3)cc21`: the pIC50 in data set [2] is 6.36.
For the compound `Cn1cc(C2CCCN(C(=O)OC(C)(C)C)C2)c2ccc(C(=O)NS(=O)(=O)C3CC3)cc21` (stereo not drawn), the pIC50 in [2] is 6.41; in data set [3] it was less than 4.52.
In the case of `C[C@H]1CC[C@@H](c2cn(C)c3cc(C(=O)NS(=O)(=O)C4CC4)ccc23)C1`, the negative logarithm of the IC50 (pIC50) was 7.21 in data set [2] and 5.27 in data set [3].
`C[C@@H]1CC[C@@H](c2cn(C)c3cc(C(=O)NS(=O)(=O)C4CC4)ccc23)C1`: the pIC50 in data set [2] was 6.29; in data set [3], less than 4.52.
The like results for `Cn1cc(C2(C)CCCCO2)c2ccc(C(=O)NS(=O)(=O)C3CC3)cc21` (stereo not drawn) were, in that order, less than 4.52 and less than 4.52.
As for `Cn1cc(C2CCCCC2)c2ccc(C(=O)NS(=O)(=O)C3CC3)cc21`, the figures for the pIC50 in data set [1], in data set [2] and in data set [3] were 7.26, 7.38 and 5.62, respectively. For the same compound, the Ratio IC50 in the data set filed under Homo sapiens was 57.
As to `COc1ncc(-c2c(C3CCCCC3)c3ccc(C(=O)NS(=O)(=O)C4CC4)cc3n2C)cc1C#N`, in data set [1], the pIC50 was 7.07.
Regarding `Cn1cc(C2CCN(C(=O)OC(C)(C)C)CC2)c2ccc(C(=O)NS(=O)(=O)C3CC3)cc21`, the figures for the negative-log IC50 (pIC50) in [1], in data set [2] and in [3] were 6.42, 6.41 and less than 4.52, respectively.
On to `Cn1cc(C2C3CC4CC2CN(C4)C3)c2ccc(C(=O)NS(=O)(=O)C3CC3)cc21` (stereo not drawn), for which the negative-log IC50 (pIC50) in data set [2] and in [3] was less than 4.52 each time.
In [2], `O=C(NS(=O)(=O)C1CC1)c1ccc2c(C3CCCCC3)c3n(c2c1)CCCCC3=O` gave a negative logarithm of the IC50 (pIC50) of 5.82.
Consider `Cn1cc(C2CCCCC2)c2cc(F)c(C(=O)NS(=O)(=O)C3CC3)cc21`, for which the Papp A→B in data set [4] turned out to be 12.9 ×10⁻⁶ cm/s. Also, in data set [5], the Papp B→A turned out to be 16 ×10⁻⁶ cm/s. The pIC50 in data set [1] is 7.52 to 7.85; in [2], 7.52; in data set [3], less than 5.00; in [6], less than 5.00. Also, in data set [7], the efflux ratio is 1.2.
Turning to `Cn1cc(C2=CCN(C(=O)OC(C)(C)C)CC2)c2ccc(C(=O)NS(=O)(=O)C3CC3)cc21`, the negative logarithm of the IC50 (pIC50) in data set [2] is 6.20; in [3], less than 4.52.
The like results for `CCC(c1cn(C)c2cc(C(=O)NS(=O)(=O)C3CC3)ccc12)C(C)(C)C` (stereo not drawn) were, in that order, 5.92 and less than 4.52.
For `Cn1cc(C2CCNCC2)c2ccc(C(=O)NS(=O)(=O)C3CC3)cc21` the same measures were less than 4.52 and less than 4.52.
In data set [2], `Cn1cc(C2CCC(C(C)(C)C)CC2)c2ccc(C(=O)NS(=O)(=O)C3CC3)cc21` (stereo not drawn) showed a negative-log IC50 (pIC50) of 7.35.
On the same count and under the same terms, in the case of `Cn1cc(C2CCCCCC2)c2ccc(C(=O)NS(=O)(=O)C3CC3)cc21` it was 6.94.
As for `Cn1ccc2ccc(C(=O)NS(=O)(=O)C3CC3)cc21`, the negative logarithm of the IC50 (pIC50) in [2] and in [3] was less than 4.52 throughout.
`Cc1nn(-c2cnc(OCC3(C)CC3)c(Cl)c2)c2ccc(C(=O)NS(C)(=O)=O)cc12` showed a negative logarithm of the IC50 (pIC50) in data set [1] of 8.10.
On to `Cn1cc(C2=CCOCC2)c2ccc(C(=O)NS(=O)(=O)C3CC3)cc21`, for which the negative-log IC50 (pIC50) in data set [2] is 4.70; in data set [3], less than 4.52.
For `Cn1cc(C2=CCNCC2)c2ccc(C(=O)NS(=O)(=O)C3CC3)cc21` the same measures were less than 4.52 and less than 4.52.
`Cn1cc(C2C3CC4CC(C3)CC2C4)c2ccc(C(=O)NS(=O)(=O)C3CC3)cc21` (stereo not drawn): the pIC50 in data set [2] was 7.10; in [3] it was 5.08.
